A short description of this series: Preparation of solubilizates: content of solubilized active ingredient, measured photometrically. The class given is physicochemical. As to conditions: pH 7. Here is the method: 2 g of the copolymer were weighed into a beaker. Then, one medicament in each case was weighed into the mixture as follows in order to obtain a supersaturated solution. (If the weighed-in mass dissolved in the medium, the initial weight was increased until a sediment formed). […] Phosphate buffer pH 7.0 was then added until solubilizer and phosphate buffer were present in the weight ratio 1:9. […] There then followed a resting time of at least one hour. Following filtration of the mixture, it was measured photometrically and the content of active ingredient was determined.

Consider “copolymers of N-vinylpyrrolidone/VEOVA 9 (weight ratio 90/10) [Example 3]”, for which the “content of solubilized active ingredient, Carbamazepine” value turned out to be 0.19 g/100 ml and the “content of solubilized active ingredient, Piroxicam” value is listed as 0.48 g/100 ml.
For “copolymers of N-vinylpyrrolidone/N-vinylcaprolactam/VEOVA 10 (weight ratio 70/20/10) [Example 4]” the same measures were 0.21 g/100 ml and 0.50 g/100 ml.
The matching figures for “copolymers of N-vinylpyrrolidone/VEOVA 9 (weight ratio 80/20) [Example 2]”: 0.17 g/100 ml and 0.54 g/100 ml.

The values are drawn from patent publication US20080200564A1, “Copolymers Based on N-Vinylpyrrolidone and Branched Aliphatic Carbonxylic Acids, and Their Use as Solubilizers” (BASF Aktiengesellschaft, priority 2005, published 2008).
